In US8389523B2, “Substituted quinoxaline and an agrochemical composition thereof” (Kumiai Chemical Industry Co., Ltd., priority 2007, dated 2013):

What was measured:
Type in all cases: in vivo
Parameters in all cases: scale not given here
Amaranthus viridis L. [1] = experiment: Herbicidal effects in upland field foliar treatment (Test Example 3); conditions: criteria of Table 138; for herbicidal effects on Amaranthus viridis L.: 1000 g of the active ingredient per hectare, 14th day after the treatment, wettable powder; for herbicidal effect (index) on Amaranthus viridis L.: 1000 g active ingredient per hectare, 14th day after treatment
Method in brief: (§1)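 Greenhouse pot test, upland soil; 2-wk-old plants sprayed from above with water-diluted wettable powder (1000 L/ha spray volume, 1000 g a.i./ha). Regrown in greenhouse; visual herbicidal score on day 14 post-treatment.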

[2] = system: Abutilon theophrasti medicus; experiment: as above; conditions: criteria of Table 138; for herbicidal effects on Abutilon theophrasti medicus: 1000 g of the active ingredient per hectare, 14th day after the treatment, wettable powder; for herbicidal effect (index) on Abutilon theophrasti medicus: 1000 g active ingredient per hectare, 14th day after treatment
Method in brief: as §1

[3] = system: Echinochloa crus-galli (L.) P. Beauv. var. crus-galli; experiment: as above; conditions: criteria of Table 138; for herbicidal effects on Echinochloa crus-galli (L.) P. Beauv. var. crus-galli: 1000 g of the active ingredient per hectare, 14th day after the treatment, wettable powder; for herbicidal effect (index) on Echinochloa crus-galli (L.) P. Beauv. var. crus-galli: 1000 g active ingredient per hectare, 14th day after treatment
Method in brief: as §1

Amaranthus viridis L. [4] = experiment: Herbicidal effects in upland field soil treatment (Test Example 2); conditions: 1000 g active ingredient per hectare, 21st day after treatment, criteria of Table 138
Method in brief: (§2)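 Seeds sown in upland soil and covered; surface sprayed with water-diluted wettable powder, 1000 g a.i./ha, spray volume 1000 L/ha. Greenhouse growth, visual herbicidal rating at day 21.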

[5] = system: Abutilon theophrasti medicus; experiment: as above; conditions: 1000 g active ingredient per hectare, 21st day after treatment, criteria of Table 138
Method in brief: as §2

[6] = system: Echinochloa oryzicola Vasing; experiment: Herbicidal effects in paddy field soil treatment (Test Example 1); conditions: for Herbicidal effects index, Echinochloa oryzicola Vasing: paddy field soil treatment, 1000 g of the active ingredient per hectare, wettable powder added dropwise on water surface, 21st day after treatment
Method in brief: (§3)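 Paddy soil pre-emergence test: seeds sown, flooded 3 cm; next day wettable powder in water applied dropwise to water surface, 1000 g a.i./ha; greenhouse; effect rated visually on scale at 21 d post-treatment.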

[7] = system: Monochoria vaginalis (Burm. f.) Presl var. plantaginea (Roxb.) Solms-Laub.; experiment: as above; conditions: for Herbicidal effects index, Monochoria vaginalis (Burm. f.) Presl var. plantaginea (Roxb.) Solms-Laub.: paddy field soil treatment, 1000 g of the active ingredient per hectare, wettable powder added dropwise on water surface, 21st day after treatment
Method in brief: as §3

[8] = system: Scirpus juncoides Roxb. var. ohwianus. T. Koyama; experiment: as above; conditions: for Herbicidal effects index, Scirpus juncoides Roxb. var. ohwianus. T. Koyama: paddy field soil treatment, 1000 g of the active ingredient per hectare, wettable powder added dropwise on water surface, 21st day after treatment
Method in brief: as §3

[9] = paddy field soil treatment (Test Example 1), criteria of Table 138

Row | Compound | herbicidal effects on Amaranthus viridis L. (Amaranthus viridis L. [1]) | herbicidal effects on Abutilon theophrasti medicus [2] | herbicidal effects on Echinochloa crus-galli (L.) P. Beauv. var. crus-galli [3] | herbicidal effect (index) on Amaranthus viridis L. (Amaranthus viridis L. [4]) | herbicidal effect (index) on Abutilon theophrasti medicus [5] | Herbicidal effects index, Echinochloa oryzicola Vasing [6] | Herbicidal effects index, Monochoria vaginalis (Burm. f.) Presl var. plantaginea (Roxb.) Solms-Laub. [7] | Herbicidal effects index, Scirpus juncoides Roxb. var. ohwianus. T. Koyama [8] | herbicidal effect (index) on Amaranthus viridis L. (Amaranthus viridis L. [1]) | herbicidal effect (index) on Abutilon theophrasti medicus [2] | herbicidal effect (index) on Echinochloa crus-galli (L.) P. Beauv. var. crus-galli [3] | herbicidal effect (index) on Echinochloa oryzicola Vasing [6, 9] | herbicidal effect (index) on Monochoria vaginalis (Burm. f.) Presl var. plantaginea (Roxb.) Solms-Laub. [7, 9] | herbicidal effect (index) on Scirpus juncoides Roxb. var. ohwianus. T. Koyama [8, 9]
1 | N#Cc1cccc(-n2c(=O)c(C(=O)C3=C(O)CCCC3=O)nc3ccccc32)c1 [II-136] | 5 | 5 | 5 | 5 | 5 | 5 | 5 | 5 | – | – | – | – | – | –
2 | COc1ccc(-n2c(=O)c(C(=O)C3=C(O)CCCC3=O)nc3ccccc32)nc1 [I-180] | – | – | – | 5 | 5 | 4 | 5 | 5 | 5 | 5 | 4 | – | – | –
3 | O=C1CCCC(O)=C1C(=O)c1nc2ccccc2n(-c2ccc(OCC3CC3)cc2)c1=O [II-208] | 5 | 5 | 4 | 5 | 5 | 5 | 5 | 5 | – | – | – | – | – | –
4 | CC(C)(C)OC(=O)Cn1c(=O)c(C(=O)C2=C(O)CCCC2=O)nc2cccnc21 [III-99] | 5 | 5 | 4 | 5 | 5 | 5 | 5 | 5 | – | – | – | – | – | –
5 | O=C1CCCC(O)=C1C(=O)c1nc2ccccc2n(-c2ccsc2)c1=O [I-139] | – | – | – | 5 | 5 | 5 | 5 | 5 | 5 | 5 | 4 | – | – | –
6 | COCCn1c(=O)c(C(=O)C2=C(O)CCCC2=O)nc2cccc(Cl)c21 [I-230] | – | – | – | 5 | 4 | 5 | 5 | 5 | 5 | 5 | 5 | – | – | –
7 | O=C1CCCC(O)=C1C(=O)c1nc2cccnc2n(-c2ccc(Br)cc2)c1=O [IV-18] | 5 | 5 | 5 | 5 | 5 | 5 | 5 | 5 | – | – | – | – | – | –
8 | COc1cccc(-n2c(=O)c(C(=O)C3=C(O)CCCC3=O)nc3cccnc32)c1 [IV-57] | 5 | 5 | 4 | 5 | 5 | – | – | – | – | – | – | 4 | 5 | 5
9 | CC1(C)C(=O)C(C(=O)c2nc3ccccc3n(-c3ccccc3)c2=O)=C(O)C(C)(C)C1=O [II-5] | – | – | – | 5 | 5 | 5 | 5 | 5 | 5 | 5 | 5 | – | – | –
10 | CC1=NOC(Cn2c(=O)c(C(=O)C3=C(O)CCCC3=O)nc3ccccc32)C1 (stereo not drawn) [I-212] | – | – | – | 5 | 5 | 5 | 5 | 5 | 5 | 4 | 5 | – | – | –
11 | O=C1CCCC(O)=C1C(=O)c1nc2ccccc2n(-c2cccc3c2OCCO3)c1=O [II-226] | 5 | 5 | 5 | 5 | 5 | 5 | 5 | 5 | – | – | – | – | – | –
12 | CC1(C)CC(=O)C(C(=O)c2nc3ccccc3n(-c3ccc4c(c3)OCCO4)c2=O)=C(O)C1 [II-228] | 5 | 5 | 5 | 5 | 5 | 5 | 5 | 5 | – | – | – | – | – | –
13 | Cc1csc(-n2c(=O)c(C(=O)C3=C(O)CCCC3=O)nc3ccccc32)n1 [I-160] | – | – | – | 5 | 5 | 5 | 5 | 5 | 5 | 5 | 5 | – | – | –
14 | CCOc1cc(-n2c(=O)c(C(=O)C3=C(O)CCCC3=O)nc3ccccc32)ccc1OC [II-217] | 5 | 5 | 4 | 5 | 5 | 4 | 5 | 5 | – | – | – | – | – | –
15 | O=C1CCCC(O)=C1C(=O)c1nc2cccc(F)c2n(-c2ccccc2)c1=O [II-243] | 5 | 5 | 5 | 5 | 5 | 5 | 5 | 5 | – | – | – | – | – | –
16 | Cc1ccc(-n2c(=O)c(C(=O)C3=C(O)CCCC3=O)nc3ccccc32)cc1 [II-21] | 5 | 5 | 5 | 5 | 5 | 5 | 5 | 5 | – | – | – | – | – | –
17 | O=C1CCCC(O)=C1C(=O)c1nc2cc(F)cc(F)c2n(-c2ccccc2)c1=O [II-261] | 5 | 5 | 5 | 5 | 4 | 5 | 5 | 5 | – | – | – | – | – | –
18 | O=C1CCCC(O)=C1C(=O)c1nc2cccnc2n(CCF)c1=O [III-45] | 5 | 5 | 5 | 5 | 4 | 4 | 5 | 5 | – | – | – | – | – | –
